From US20040266699A1, “Flavonoid compounds capable of modifying the dynamic and/or physical state of biological membranes and to stimulate the endogenous synthesis of stress proteins in eukaryotic cells, relative synthesis and their use” (priority 2001, published 2004)

How the values were obtained:
human hsp70 promoter = assay: Luciferase reporter assay under control of human hsp70 promoter in L929 cells exposed to heat shock; assay type: cell-based, murine; conditions: 10 μM, heat shock at 40° C. and 41° C., Bimoclomol as internal positive control
Description: For example, L929 cells, incubated at 37° C., are stressed by heat shock at 40° or 41° C. with exposures variable from 20 min to an hour or more. After heat shock, a molecular assay that involves mRNA purification, its separation on agarose or acrylamide gels followed by hybridization with a labeled probe ([…] performed. Alternatively, the activity of luciferase used as reported gene under the control of a heat shock promoter can be used (FIG. 1). In this case, after heat shock cells are lysed in the presence of an appropriate substrate for luciferase, the activity is measured with a luminometer. […] The test utilized to assay the over expression of heat shock genes is based on a rapid enzymatic assay to determine luminescence of eukaryotic cells transfected with luciferase gene. The luciferase gene has been cloned in an eukaryotic plasmid under the control of human hsp70 gene and transfected in murine fibroblasts (L929 cell line). In such cells, a heat shock induces hsp70 promoter that activates transcription of the downstream gene (reporter gene, e.g. luciferase) whose activity is measured determining luciferase in the presence of luciferine with a luminometer. […] After lysis, luciferase activity has been determined measuring the quantity of light emitted with a luminometer. […]

[1] = Membrane fluidity (DPH fluorescence anisotropy) in artificial membranes (LUVs); conditions: LUVs of di-oleil-fosfatidyl-ethanolamine, di-oleil-fosfatidyl-choline, cardiolipin and fosfatidylserine; 1 DPH per 500 lipid molecules
Description: Test to evaluate changes of MPS in artificial membranes (LUVs, Large Unilamellar Vesicles), made of di-oleil-fosfatidyl-ethanolamine, di-oleil-fosfatidyl-choline, cardiolipin and fosfatidylserine, that mimic biological membrane lipid composition. Fluidity has been measured with DPH (1,6-difenyl-1,3,5-esatriene) measuring fluorescence.
In these membranes, every 500 lipid molecules is inserted. 1 molecule of DPH This substance emits fluorescent light when it is excited with polarized light. The more a membrane is rigid the less is the capacity of the molecules to rotate freely in the membrane. Using a fluorimeter that detects the emitted fluorescence by DPH, either vertically in respect to the polarizing light or horizontally, the anisotropy of the membrane is determined and correlated to its fluidity. The more the membrane is fluid, the more DPH rotates freely and emits light in a direction different from that with which it receives the excitation. To a higher value of anisotropy corresponds a higher rigidity of the membrane, while a lower anisotropy (low fluorescence) corresponds a higher fluidity.

SMILES | heat shock response (hsp70 promoter-driven luciferase activity / inducibility of hsp70 mRNA transcription by heat shock) (human hsp70 promoter) | change of membrane physical state (fluidity) measured with DPH fluorescence [1]
Oc1ccc(C=Cc2cc(O)cc(O)c2)cc1 [#100, Resveratrol, reference compound] | inhibits the inducibility of hsp70 mRNA transcription by heat shock | –
Oc1ccc2c(c1)O[C@H](c1ccc(O)c(O)c1)[C@@H](O[C@@H]1OC[C@@H](O)[C@H](O)[C@H]1O)C2 [#11, fisetinidol-3-O-β-D-xylopyranoside] | induce a heat shock response | increases fluidity
